Experimental data reported in publication PMC10440361 (Current Research in Pharmacology and Drug Discovery, 2023).
Like-named read-outs stand apart in the source and are kept apart here.

What was measured:
[1] = tested on: adult male cynomolgus monkeys; type: in vivo; conditions: for average increase in MAP between 30 min and 5 h: vehicle 3.5 mmHg; for maximum MAP values (increase from baseline) / maximum Δ MAP: telemetered cynomolgus monkeys; for maximum MAP values (increase from baseline): IV vehicle 22.2 ± 3.5 mmHg; for time for which increases from baseline in MAP above 20 mmHg were sustained: average; for average increase in MAP between 30 min and 5 h after administration: vehicle SC 0.8 mmHg; for maximum Δ MAP: vehicle SC 25.9 ± 1.6 mmHg
[2] = tested on: adult male Wistar rats; assay: Skin blood flow; type: in vivo; conditions: anesthetized rats, IV infusion; discussion statement
[3] = tested on: adult male Sprague Dawley rats; assay: Arterial blood pressure by telemetry after SC administration in rats; type: in vivo; conditions: conscious telemetered Sprague Dawley rats, n=6
[4] = molecular target: human V1a receptors; conditions: read-out: EC50 for human V1a; ref Croston et al., 2023; cited from earlier work
[5] = tested on: human V2 receptors; conditions: ref Croston et al., 2023, cited from earlier work
[6] = tested on: rat V2 receptor; conditions: cell-based functional assays; ref Croston et al., 2023; cited from earlier work

Which “time past which MAP increases from baseline above 20 mmHg were not sustained” value ([1]; monkeys, IV bolus 0.03 mg/kg, on average) does the source give for “N-[N-(N-glycylglycyl) glycyl]-8-L-lysinevasopressin [Terlipressin]” here?
Its value is no more than 30 min.

What about the “average increase in MAP between 30 min and 5 h” value ([1]; monkeys, IV bolus 0.03 mg/kg) of the same substance?
Its value is 6.0 mmHg.

What about the “time past which MAP increases from baseline above 20 mmHg were not sustained” value ([1]; monkeys, IV bolus 0.09 mg/kg, on average) of the same substance?
Its value is no more than 30 min.

What about the “average increase in MAP between 30 min and 5 h” value ([1]; monkeys, IV bolus 0.09 mg/kg) of the same substance?
Its value is 5.8 mmHg.

And the “time past which MAP increases from baseline above 20 mmHg were not sustained” value ([1]; monkeys, IV bolus 0.17 mg/kg, on average)?
Its value is no more than 75 min.

And the “average increase in MAP between 30 min and 5 h” value ([1]; monkeys, IV bolus 0.17 mg/kg)?
Its value is 14.6 mmHg.

What about the “time past which MAP increases from baseline above 20 mmHg were not sustained” value ([1]; monkeys, IV bolus 0.34 mg/kg, on average) of the same substance?
The value was no more than 90 min.

What about the “average increase in MAP between 30 min and 5 h” value ([1]; monkeys, IV bolus 0.34 mg/kg) of the same substance?
The value was 14.7 mmHg.

What about the “time after administration by which ΔMAP was negligible” value ([1]; monkeys, IV bolus, all treatment groups 0.03 to 0.34 mg/kg, on average) of the same substance?
The value was no more than 150 min.

What about the “maximum MAP values (increase from baseline)” value ([1]; IV bolus 0.03 mg/kg) of the same substance?
Its value is 29.6 ± 3.6 mmHg.

What about the “maximum MAP values (increase from baseline)” value ([1]; IV bolus 0.09 mg/kg) of the same substance?
The value was 29.9 ± 6.2 mmHg.

What about the “maximum MAP values (increase from baseline)” value ([1]; IV bolus 0.17 mg/kg) of the same substance?
The value was 50.8 ± 5.6 mmHg.

What about the “maximum MAP values (increase from baseline)” value ([1]; IV bolus 0.34 mg/kg) of the same substance?
Its value is 41.2 ± 7.5 mmHg.

With “[Phe2,Dab(Lys(Lys(Ac)-[Ala6,Glu9]))8]VT [OCE-205]” as the substance, how does the “approximately maximal decrease in SBF from baseline” value [2] read?
Its value is roughly 40%.

What about the “maximum increase in mean arterial blood pressure vs mean pre-test value” (shortened to “maximum increase”) ([3]; SC 0.1 mg/kg, at 1 h) of the same substance?
Its value is “+22 mmHg”.

What about the “maximum increase” value ([3]; SC 0.6 mg/kg, at 2 h) of the same substance?
Its value is “+22 mmHg”.

And the “maximum increase” value ([3]; SC 4 mg/kg, at 3 and 4 h)?
The value was “+38 mmHg”.

And the “maximum increase” value ([3]; SC 20 mg/kg, at 4 h)?
The value was “+46 mmHg”.

And the “time for which increases from baseline in MAP above 20 mmHg were sustained” value (from here on “time for which increases from baseline”) ([1]; monkeys, SC bolus 0.01 mg/kg)?
Its value is 150 min.

What about the “average increase in MAP between 30 min and 5 h after administration” value (shortened to “average increase … after administration”) ([1]; monkeys, SC bolus 0.01 mg/kg) of the same substance?
The value was 20.6 mmHg.

What about the “time for which increases from baseline” value ([1]; monkeys, SC bolus 0.05 mg/kg) of the same substance?
Its value is 75 min.

And the “average increase … after administration” value ([1]; monkeys, SC bolus 0.05 mg/kg)?
The value was 18.4 mmHg.

And the “time for which increases from baseline” value ([1]; monkeys, SC bolus 0.5 mg/kg)?
The value was 300 min.

What about the “Δ MAP maintained throughout the 8 h of measurement” value ([1]; monkeys, SC bolus 0.5 mg/kg, on average) of the same substance?
Its value is “above 14 mmHg”.

And the “average increase … after administration” value ([1]; monkeys, SC bolus 0.5 mg/kg)?
Its value is 24.8 mmHg.

And the “maximum Δ MAP” value ([1]; SC bolus 0.01 mg/kg)?
The value was 36.1 ± 2.1 mmHg.

What about the “maximum Δ MAP” value ([1]; SC bolus 0.05 mg/kg) of the same substance?
The value was 34.9 ± 1.1 mmHg.

And the “maximum Δ MAP” value ([1]; SC bolus 0.5 mg/kg)?
The value was 41.6 ± 6.5 mmHg.

What about the EC50 [4] of the same substance?
The EC50 was 700 pM.

And the “activity at human V2 receptors” value ([5]; at clinically relevant concentrations)?
Its value is “little to no activity”.

What about the “activity at the human V2 receptor” value ([5]; cell-based functional assays) of the same substance?
The value was “no activity”.

And the “activity at the rat V2 receptor” value [6]?
The value was “no activity”.
